Test: recombinant UMI read abundance after kanamycin selection (control-corrected) (log10(CPM+1)); higher = more efficient recombination; extreme values may be limits of the assay; sequences stand for … in AGTGCAGAGAAAATCGGCCAGTTTTCTCTGCCTGCAGTCCGCATGCCGTGGGACCCCTTGGGTTCTAACCTGTTGCCTAGATTTATGCAGCGGACTGCCTTTCTCCCAAAGTGATAAACCGG…AGGTTGGTTTCACT; site = the 11-nt donor
Protocol: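 Pooled E. coli donor-specificity screen for the IS621 bridge recombinase. Each library member carries a reprogrammed 11-nt donor and a full-length LE bridge RNA expressed in cis from the natural promoter, with a paired donor-binding loop (8-nt LDG + 4-nt RDG) and a target-binding loop fixed to T5. It is co-electroporated with a T5 target plasmid; recombinase is induced with 0.07 mM IPTG and recombinants are selected on kanamycin. UMIs are counted as CPM, averaged over two biological replicates and corrected by the unselected control. Molecule = full bridge RNA written as DNA, built from the T5 scaffold: LDG = donor specificity nt 1-8, RDG = reverse complement of nt 8-11.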
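Also: IS621 bridge recombinase in Escherichia coli cells against a fixed T5 target plasmid.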

| Sequence | recombinant UMI read abundance (log10) |
| --- | --- |
| ACGTAGGCATGGACCGGTTTTCCCGGTAATCCGTATTTGAA (site ACGTAGGCTTT) | 1.96 |
| ACGTAGGCATGGACCGGTTTTCCCGGTAATCCGTATTTGGC (site AAGTAGGCTGC) | 1.32 |
| ACGTAGGCATGGACCGGTTTTCCCGGTAATCCGTATTTGGC (site ACGTAGGCTGC) | 2.6 |
| ACGTAGGCATGGACCGGTTTTCCCGGTAATCCGTATTTGGC (site AGGTAGGCTGC) | 1.06 |
| ACGTAGGCATGGACCGGTTTTCCCGGTAATCCGTATTTGGC (site ATGTAGGCTGC) | 1.21 |
| ACGTGAGCATGGACCGGTTTTCCCGGTAATCCGTATTTGGA (site ACGTGAGCTTC) | 1.78 |
| ACGTTAGCATGGACCGGTTTTCCCGGTAATCCGTATTTGTG (site ACGTTAGCTCA) | 1.84 |
| ACGTTAGCATGGACCGGTTTTCCCGGTAATCCGTATTTGTG (site CCGTTAGCTCA) | 0.742 |
| ACGTTAGCATGGACCGGTTTTCCCGGTAATCCGTATTTGTG (site GCGTTAGCTCA) | 0.298 |
| ACGTTAGCATGGACCGGTTTTCCCGGTAATCCGTATTTGTG (site TCGTTAGCTCA) | 0.526 |
| ACGTTCACATGGACCGGTTTTCCCGGTAATCCGTATTTGCC (site ACGTTCACTGG) | 2.69 |
| ACGTTGCCATGGACCGGTTTTCCCGGTAATCCGTATTTGTT (site ACGTTGCCTAA) | 0.363 |
| ACTAAAACATGGACCGGTTTTCCCGGTAATCCGTATTTGAG (site ACTAAAACTCT) | 1.77 |
| ACTAAAACATGGACCGGTTTTCCCGGTAATCCGTATTTGAG (site ACTACAACTCT) | 0.0124 |
| ACTAAAACATGGACCGGTTTTCCCGGTAATCCGTATTTGAG (site ACTAGAACTCT) | 0.267 |
| ACTAAAACATGGACCGGTTTTCCCGGTAATCCGTATTTGAG (site ACTATAACTCT) | 0.376 |
| ACTAAAGCATGGACCGGTTTTCCCGGTAATCCGTATTTGAT (site ACTAAAGCTAT) | 2.22 |
| ACTAAAGCATGGACCGGTTTTCCCGGTAATCCGTATTTGAT (site CCTAAAGCTAT) | 0 |
| ACTAAAGCATGGACCGGTTTTCCCGGTAATCCGTATTTGAT (site GCTAAAGCTAT) | 0.0031 |
| ACTAAAGCATGGACCGGTTTTCCCGGTAATCCGTATTTGAT (site TCTAAAGCTAT) | 0.855 |
| ACTACACCATGGACCGGTTTTCCCGGTAATCCGTATTTGGT (site ACTACACCTAC) | 0 |
| ACTACCTCATGGACCGGTTTTCCCGGTAATCCGTATTTGTT (site ACTACCTCTAA) | 1.19 |
| ACTACTGCATGGACCGGTTTTCCCGGTAATCCGTATTTGCC (site ACTACTGCTGG) | 1.54 |
| ACTACTGCATGGACCGGTTTTCCCGGTAATCCGTATTTGCC (site CCTACTGCTGG) | 1.45 |
| ACTACTGCATGGACCGGTTTTCCCGGTAATCCGTATTTGCC (site GCTACTGCTGG) | 0.946 |
| ACTACTGCATGGACCGGTTTTCCCGGTAATCCGTATTTGCC (site TCTACTGCTGG) | 1.03 |

| Sequence | recombinant UMI read abundance (log10) |
| --- | --- |
| ACTAGACCATGGACCGGTTTTCCCGGTAATCCGTATTTGAG (site ACTAGAACTCT) | 0.103 |
| ACTAGACCATGGACCGGTTTTCCCGGTAATCCGTATTTGAG (site ACTAGACCTCT) | 0.0176 |
| ACTAGACCATGGACCGGTTTTCCCGGTAATCCGTATTTGAG (site ACTAGAGCTCT) | 0.0203 |
| ACTAGACCATGGACCGGTTTTCCCGGTAATCCGTATTTGAG (site ACTAGATCTCT) | 1.02 |
| ACTAGAGCATGGACCGGTTTTCCCGGTAATCCGTATTTGGT (site ACTAGAGCTAC) | 1.72 |
| ACTAGAGCATGGACCGGTTTTCCCGGTAATCCGTATTTGGT (site ACTAGCGCTAC) | 0.398 |
| ACTAGAGCATGGACCGGTTTTCCCGGTAATCCGTATTTGGT (site ACTAGGGCTAC) | 0.647 |
| ACTAGAGCATGGACCGGTTTTCCCGGTAATCCGTATTTGGT (site ACTAGTGCTAC) | 0.4 |
| ACTAGTACATGGACCGGTTTTCCCGGTAATCCGTATTTGAC (site ACTAGTACTGT) | 2.14 |
| ACTAGTCCATGGACCGGTTTTCCCGGTAATCCGTATTTGGT (site ACTAGTACTAC) | 0.0112 |
| ACTAGTCCATGGACCGGTTTTCCCGGTAATCCGTATTTGGT (site ACTAGTCCTAC) | 0.00473 |
| ACTAGTCCATGGACCGGTTTTCCCGGTAATCCGTATTTGGT (site ACTAGTGCTAC) | 0.00689 |
| ACTAGTCCATGGACCGGTTTTCCCGGTAATCCGTATTTGGT (site ACTAGTTCTAC) | 0.244 |
| ACTAGTGCATGGACCGGTTTTCCCGGTAATCCGTATTTGGC (site ACTAGTGCTAC) | 0.0845 |
| ACTAGTGCATGGACCGGTTTTCCCGGTAATCCGTATTTGGC (site ACTAGTGCTCC) | 0.0166 |
| ACTAGTGCATGGACCGGTTTTCCCGGTAATCCGTATTTGGC (site ACTAGTGCTGC) | 2.6 |
| ACTAGTGCATGGACCGGTTTTCCCGGTAATCCGTATTTGGC (site ACTAGTGCTTC) | 0.32 |
| ACTAGTGCATGGACCGGTTTTCCCGGTAATCCGTATTTGGT (site AATAGTGCTAC) | 0.282 |
| ACTAGTGCATGGACCGGTTTTCCCGGTAATCCGTATTTGGT (site ACAAGTGCTAC) | 0.762 |
| ACTAGTGCATGGACCGGTTTTCCCGGTAATCCGTATTTGGT (site ACCAGTGCTAC) | 1.02 |
| ACTAGTGCATGGACCGGTTTTCCCGGTAATCCGTATTTGGT (site ACGAGTGCTAC) | 0.586 |
| ACTAGTGCATGGACCGGTTTTCCCGGTAATCCGTATTTGGT (site ACTAATGCTAC) | 0.409 |
| ACTAGTGCATGGACCGGTTTTCCCGGTAATCCGTATTTGGT (site ACTACTGCTAC) | 0.285 |
| ACTAGTGCATGGACCGGTTTTCCCGGTAATCCGTATTTGGT (site ACTAGAGCTAC) | 1.08 |
| ACTAGTGCATGGACCGGTTTTCCCGGTAATCCGTATTTGGT (site ACTAGCGCTAC) | 0.00815 |
| ACTAGTGCATGGACCGGTTTTCCCGGTAATCCGTATTTGGT (site ACTAGGGCTAC) | 0.0226 |

From the supplement of paper PMC11208160
